In US12503475B2 (Centessa Pharmaceuticals (UK) Limited, priority 2020, dated 2025):

Molecular target: T1, human orexin type 2 receptor (hOX2R) (Homo sapiens, UniProt O43614)
T1 construct: expressed in transfected cells
T1 sequence (O43614 1-444): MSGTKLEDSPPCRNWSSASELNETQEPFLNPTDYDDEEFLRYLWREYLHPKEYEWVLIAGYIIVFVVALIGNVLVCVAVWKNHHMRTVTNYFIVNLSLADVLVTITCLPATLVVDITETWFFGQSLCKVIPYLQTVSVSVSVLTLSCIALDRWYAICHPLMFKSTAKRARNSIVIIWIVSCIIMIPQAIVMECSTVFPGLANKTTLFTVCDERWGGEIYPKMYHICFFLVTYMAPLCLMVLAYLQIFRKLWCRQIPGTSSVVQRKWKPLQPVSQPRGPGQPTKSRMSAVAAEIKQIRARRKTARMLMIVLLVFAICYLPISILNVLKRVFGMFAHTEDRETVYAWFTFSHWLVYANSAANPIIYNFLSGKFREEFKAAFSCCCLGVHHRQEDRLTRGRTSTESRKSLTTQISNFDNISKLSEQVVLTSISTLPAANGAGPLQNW
Assay: Measurement of orexin type 2 receptor agonist activity (FLIPR calcium fluorescence)
Type: cell-based
Settings: CHO cells expressing hOX2R, FLIPR calcium fluorescence; for EC50: read-out: hOx2 pEC50 (converted); for Emax: CHO, read-out: hOx2 Emax (%)
Procedure, shortened: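 Agonism was read as fluorescence in cells stably expressing human OX2R. E. is the response at 10 μM relative to orexin A as full agonist (100%).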

| EC50 [nM] | Emax [%] | SMILES |
| --- | --- | --- |
| 1 to 10 | 90 to 100 | CN(C)S(=O)(=O)N[C@@H]1[C@H](Cc2cc(F)cc(-c3ccccc3)c2F)N(C(=O)C2CCO2)CC12CC2 (stereo partly drawn) [Compound 347, N-((6S,7S)-6-((2,5-difluoro-[1,1′-biphenyl]-3-yl)methyl)-5-((R)-oxetane-2-carbonyl)-5-azaspiro[2.4]heptan-7-yl)-N,N-dimethylsulfuric diamide] |
| 1 to 10 | 90 to 100 | CCS(=O)(=O)N[C@@H]1[C@H](Cc2cccc(-c3ccccc3)c2)N(C(=O)[C@H](O)C(F)(F)F)CC12CC2 [Compound 58, N-((6S,7S)-6-([1,1′-biphenyl]-3-ylmethyl)-5-((S)-3,3,3-trifluoro-2-hydroxypropanoyl)-5-azaspiro[2.4]heptan-7-yl)ethanesulfonamide] |
| 10 to 100 | 70 to 80 | CC(F)C(=O)N1CC2(CC2)C(NS(C)(=O)=O)C1Cc1cccc(-c2ccccc2)c1 (single isomer, unassigned) [Compound 1, N-(6-([1,1′-biphenyl]-3-ylmethyl)-5-(2-fluoropropanoyl)-5-azaspiro[2.4]heptan-7-yl)methanesulfonamide] |
| 1 to 10 | 90 to 100 | CS(=O)(=O)N[C@@H]1[C@H](Cc2cccc(-c3ccccc3F)c2F)N(C(=O)[C@H]2CCO2)CC12CC2 [Compound 107, N-((6S,7S)-6-((2,2′-difluoro-[1,1′-biphenyl]-3-yl)methyl)-5-((R)-oxetane-2-carbonyl)-5-azaspiro[2.4]heptan-7-yl)methanesulfonamide] |
| 1 to 10 | 90 to 100 | CCS(=O)(=O)N[C@@H]1[C@H](Cc2cccc(-c3ccccc3)c2)N(C(=O)[C@H]2CCO2)CC12CC2 [Compound 41] |
| 10 to 100 | 90 to 100 | O=C([C@H]1CCO1)N1CC2(CC2)[C@H](NS(=O)(=O)c2c[nH]cn2)[C@@H]1Cc1cccc(-c2ccccc2)c1 [Compound 75, N-((6S,7S)-6-([1,1′-biphenyl]-3-ylmethyl)-5-((R)-oxetane-2-carbonyl)-5-azaspiro[2.4]heptan-7-yl)-1H-imidazole-4-sulfonamide] |
| 10 to 100 | 90 to 100 | CS(=O)(=O)N[C@@H]1[C@H](Cc2cccc(-c3ccccc3)c2)N(C(=O)C2(C#N)CCO2)CC12CC2 (stereo partly drawn) [Compound 47, N-((6S,7S)-6-([1,1′-biphenyl]-3-ylmethyl)-5-(2-cyanooxetane-2-carbonyl)-5-azaspiro[2.4]heptan-7-yl)methanesulfonamide] |

Second part, the compound before the results:

| SMILES | EC50 [nM] | Emax [%] |
| --- | --- | --- |
| C[C@@H](CF)NC(=O)N1CC2(CC2)[C@H](NS(C)(=O)=O)[C@@H]1Cc1cccc(-c2ccccc2)c1F [Compound 337, (6S,7S)-6-((2-fluoro-[1,1′-biphenyl]-3-yl)methyl)-N-((S)-1-fluoropropan-2-yl)-7-(methylsulfonamido)-5-azaspiro[2.4]heptane-5-carboxamide] | 1 to 10 | 90 to 100 |
| O=C(NCC(F)(F)F)N1CC2(CC2)[C@H](NS(=O)(=O)CF)[C@@H]1Cc1cc(F)cc(-c2ccccc2)c1F [Compound 208, (6S,7S)-6-((2,5-difluoro-[1,1′-biphenyl]-3-yl)methyl)-7-((fluoromethyl)sulfonamido)-N-(2,2,2-trifluoroethyl)-5-azaspiro[2.4]heptane-5-carboxamide] | 0.0794 to 1 | 90 to 100 |
| CS(=O)(=O)N[C@@H]1[C@H](Cc2cccc(-c3ccccc3)c2F)N(C(=O)NC2CC(F)(F)C2)CC12CC2 [Compound 83, (6S,7S)-N-(3,3-difluorocyclobutyl)-6-((2-fluoro-[1,1′-biphenyl]-3-yl)methyl)-7-(methylsulfonamido)-5-azaspiro[2.4]heptane-5-carboxamide] | 10 to 100 | 90 to 100 |
| O=C(NCCF)N1CC2(CC2)[C@H](NS(=O)(=O)C(F)F)[C@@H]1Cc1cccc(-c2ccccc2)c1F [Compound 207, (6S,7S)-7-((difluoromethyl)sulfonamido)-6-((2-fluoro-[1,1′-biphenyl]-3-yl)methyl)-N-(2-fluoroethyl)-5-azaspiro[2.4]heptane-5-carboxamide] | 1 to 10 | 90 to 100 |
| CS(=O)(=O)NC1C(Cc2cccc(-c3cc(F)cc(F)c3)c2F)N(C(=O)N2CCC2)CC12CC2 (racemic) [Compound 30, N-(5-(azetidine-1-carbonyl)-6-((2,3′,5′-trifluoro-[1,1′-biphenyl]-3-yl)methyl)-5-azaspiro[2.4]heptan-7-yl)methanesulfonamide] | 0.0794 to 1 | 90 to 100 |
| [2H]C([2H])([2H])N(C(=O)N1CC2(CC2)[C@H](NS(C)(=O)=O)[C@@H]1Cc1cccc(-c2ccccc2)c1F)C([2H])([2H])[2H] [Compound 345, (6S,7S)-6-((2-fluoro-[1,1′-biphenyl]-3-yl)methyl)-N,N-bis(methyl-d3)-7-(methylsulfonamido)-5-azaspiro[2.4]heptane-5-carboxamide] | 1 to 10 | 90 to 100 |
| COC1(C(=O)N2CC3(CC3)[C@H](NS(=O)(=O)CF)[C@@H]2Cc2cc(F)cc(-c3ccccc3)c2F)CC1 [Compound 404, N-((6S,7S)-6-((2,5-difluoro-[1,1′-biphenyl]-3-yl)methyl)-5-(1-methoxycyclopropane-1-carbonyl)-5-azaspiro[2.4]heptan-7-yl)-1-fluoromethanesulfonamide] | 1 to 10 | 90 to 100 |
| CC(C#N)NC(=O)N1CC2(CC2)[C@H](NS(C)(=O)=O)[C@@H]1Cc1cccc(-c2ccccc2)c1F (stereo partly drawn) [Compound 341, (6S,7S)-N-(1-cyanoethyl)-6-((2-fluoro-[1,1′-biphenyl]-3-yl)methyl)-7-(methylsulfonamido)-5-azaspiro[2.4]heptane-5-carboxamide] | 0.0794 to 1 | 90 to 100 |
| O=C([C@H]1CCO1)N1CC2(CC2)[C@H](NS(=O)(=O)CF)[C@@H]1Cc1cc(F)cc(-c2cccc(F)c2)c1F [Compound 123, 1-fluoro-N-((6S,7S)-5-((R)-oxetane-2-carbonyl)-6-((2,3′,5-trifluoro-[1,1′-biphenyl]-3-yl)methyl)-5-azaspiro[2.4]heptan-7-yl)methanesulfonamide] | 0.0794 to 1 | 90 to 100 |
| CCCNC(=O)N1CC2(CC2)[C@H](NS(C)(=O)=O)[C@@H]1Cc1cccc(-c2ccccc2)c1F [Compound 111, (6S,7S)-6-((2-fluoro-[1,1′-biphenyl]-3-yl)methyl)-7-(methylsulfonamido)-N-propyl-5- .azaspiro[2.4]heptane-5-carboxamide] | 1 to 10 | 90 to 100 |
| C[C@H](F)C(=O)N1CC2(CC2)[C@H](NS(C)(=O)=O)[C@@H]1Cc1cccc(-c2ccccc2)c1F [Compound 346, N-((6S,7S)-6-((2-fluoro-[1,1′-biphenyl]-3-yl)methyl)-5-((S)-2-fluoropropanoyl)-5-azaspiro[2.4]heptan-7-yl)methanesulfonamide] | 1 to 10 | 90 to 100 |
| O=C([C@@H](O)C1CC1)N1CC2(CC2)[C@H](NS(=O)(=O)C(F)F)[C@@H]1Cc1cc(F)cc(-c2cc(F)cc(F)c2)c1F [Compound 384, N-((6S,7S)-5-((S)-2-cyclopropyl-2-hydroxyacetyl)-6-((2,3′,5,5′-tetrafluoro-[1,1′-biphenyl]-3-yl)methyl)-5-azaspiro[2.4]heptan-7-yl)-1,1-difluoromethanesulfonamide] | 1 to 10 | 90 to 100 |
